Converted amounts (≈) assume the structure as drawn.
Assays:
A. baumannii 409081 [1] = assay: Biofilm inhibition, crystal violet assay; assay type: cell-based, Acinetobacter baumannii; settings: NB with 0.2% glucose, 24 h, 37 °C, 595 nm, highest concentration 25 μM
Description: (§1) Acinetobacter baumannii KCTC 2508, #3, #4, 409081 and 719705 were incubated overnight at 37°C to mid-log phase in NB medium. Bacterial cells (5 × 10^5 CFU/mL) were suspended in NB containing 0.2% glucose. A final concentration of 25 μM of peptides and antibiotics (meropenem and polymyxin B) was prepared with the bacterial suspensions in 96-well tissue culture plates and incubated at 37 °C for 24 h. The culture media was carefully removed, and biofilms were fixed with 100% methanol for 15 min and then stained with 0.1% crystal violet for 1 h and rinsed three times with distilled water. After air-drying, the biofilm mass was dissolved in 100 μL of 95% ethanol and measured at 595 nm using a microplate reader.

A. baumannii #3 [2] = assay: Biofilm inhibition, crystal violet assay; assay type: cell-based, Acinetobacter baumannii; settings: NB with 0.2% glucose, 24 h, 37 °C, 595 nm, highest concentration 25 μM
Description: as §1

A. baumannii KCTC 2508 = assay: Biofilm inhibition, crystal violet assay; assay type: cell-based, Acinetobacter baumannii; settings: NB with 0.2% glucose, 24 h, 37 °C, 595 nm, highest concentration 25 μM
Description: as §1

A. baumannii biofilms = assay: Live biofilm viability assay, SYTO 9 imaging; assay type: cell-based, Acinetobacter baumannii; settings: preformed biofilm treated with 50 μM for 24 h; A. baumannii including strains isolated from patients; EVOS FL Auto 2
Description: An A. baumannii biofilm viability assay was performed by staining with Syto9 dye. Acinetobacter baumannii strains were diluted to approximately 5 × 10^5 CFU/mL and incubated for 24 h. Biofilms of A. baumannii strains were washed with PBS and treated with 25 and 50 μM peptides and antibiotics for 24 h. Biofilms were stained with SYTO 9 diluted in PBS and the biofilm was visualized using an EVOS™ FL Auto 2 Imaging System (Thermo Fisher Scientific, Waltham, MA, USA).

A. baumannii 409081 [3] = assay: microbe, parasite or virus in culture
Text: (§2) Staphylococcus aureus ATCC 25923, S. aureus ATCC 29213, P. aeruginosa ATCC 27853, Escherichia coli ATCC 25922 and Salmonella typhimurium ATCC 14028 strains were obtained from the American Type Culture Collection (ATCC, Manassas, VA, USA). Listeria monocytogenes KCTC 3710, Bacillus cereus KCTC 1012, K. pneumoniae KCTC 2208 and A. baumannii KCTC 2508 were obtained from the Korean Collection for Type Cultures (KRIBB, Daejeon, South Korea). Clinical isolates of A. baumannii strains were collected from Eulji University Hospital (Seoul, South Korea).
(§3) Hp1404 and its analog peptides activity against both gram-positive and gram-negative bacterial strains were tested using the broth microdilution method. Briefly, S. aureus (ATCC 25923, ATCC 29213) and B. cereus KCTC 1012 were cultured overnight at 37 °C in tryptic soy broth (TSB). P. aeruginosa ATCC 27853, K. pneumoniae KCTC 2208, A. baumannii KCTC 2508 and S. typhimurium ATCC 14028 were cultured overnight at 37 °C in nutrient broth (NB). E. coli ATCC 25922 was cultured overnight at 37 °C in luria bertani (LB). L. monocytogenes KCTC 3710 was cultured overnight at 37 °C in brain heart infusion (BHI). The cultures were diluted with fresh medium at a density of 2 × 10^5 CFU/mL. Peptides were serially diluted in sodium phosphate buffer (pH 7.2) to a final concentration of 25 μM. In a 96-well plate, 50-μL bacterial aliquots were mixed with 50 μL peptide solution. After incubation at 37 °C for 18 h, the MIC was determined using a plate reader at 600 nm. The experiment was performed in triplicate.

A. baumannii 907233 = assay: microbe, parasite or virus in culture
Text: as §2, §3

A. baumannii #3 [4] = assay: microbe, parasite or virus in culture; settings: 18 h
Text: as §2, §3

A. baumannii #2 = assay: microbe, parasite or virus in culture; settings: 18 h
Text: as §2, §3

A. baumannii #4 = assay: microbe, parasite or virus in culture; settings: 18 h
Text: as §2, §3

A. baumannii 719705 [5] = assay: microbe, parasite or virus in culture
Text: as §2, §3

A. baumannii 719705 [6] = assay: Biofilm inhibition, crystal violet assay; assay type: cell-based, Acinetobacter baumannii; settings: NB with 0.2% glucose, 24 h, 37 °C, 595 nm, highest concentration 25 μM
Description: as §1

Question: How did the “concentration that inhibited biofilm formation” value (A. baumannii 409081 [1]) turn out when C[C@@H](O)[C@H]1C(=O)N2C(C(=O)O)=C(S[C@@H]3CN[C@H](C(=O)N(C)C)C3)[C@H](C)[C@H]12 [Meropenem, meropenem, reference compound] was run?
Answer: The value was ≥ 25 µM.

Question: And the “concentration that inhibited biofilm formation” value (A. baumannii #3 [2])?
Answer: Its value is ≥ 25 µM.

Question: And the “concentration that inhibited biofilm formation” value (A. baumannii KCTC 2508)?
Answer: The value was 6.25 µM.

Question: What about the “biofilm reduction by SYTO 9 fluorescence imaging” value (A. baumannii biofilms) of the same compound?
Answer: The value was “did not decrease biofilm formation”.

Question: What about the MIC (A. baumannii 409081 [3]; Acinetobacter baumannii, 409081, 18 h) of the same compound?
Answer: Its MIC is 200 µM (≈ 76.7 µg/mL).

Question: And the MIC (A. baumannii 907233; Acinetobacter baumannii, 907233, 18 h)?
Answer: Its MIC is 200 µM (≈ 76.7 µg/mL).

Question: And the MIC (A. baumannii #3 [4]; Acinetobacter baumannii)?
Answer: Its MIC is 50 µM (≈ 19.2 µg/mL).

Question: And the MIC (A. baumannii #2; Acinetobacter baumannii)?
Answer: Its MIC is 100 µM (≈ 38.3 µg/mL).

Question: And the MIC (A. baumannii #4; Acinetobacter baumannii)?
Answer: The MIC was 100 µM (≈ 38.3 µg/mL).

Question: What about the MIC (A. baumannii 719705 [5]; Acinetobacter baumannii, 719705, 18 h) of the same compound?
Answer: Its MIC is 100 µM (≈ 38.3 µg/mL).

Question: With polymyxin B [reference compound] as the compound, how does the “concentration that inhibited biofilm formation” value (A. baumannii 409081 [1]) read?
Answer: The value was 6.25 µM.

Question: What about the “concentration that inhibited biofilm formation” value (A. baumannii #3 [2]) of the same compound?
Answer: The value was 6.25 µM.

Question: And the “concentration that inhibited biofilm formation” value (A. baumannii KCTC 2508)?
Answer: Its value is 6.25 µM.

Question: And the “concentration that inhibited biofilm formation” value (A. baumannii 719705 [6])?
Answer: Its value is 6.25 µM.

Question: And the “biofilm reduction by SYTO 9 fluorescence imaging” value (A. baumannii biofilms)?
Answer: Its value is “did not decrease biofilm formation”.

Question: What about the MIC (A. baumannii 409081 [3]; A. baumannii 409081 isolated from patient, broth microdilution, 37 °C, 18 h, three independent experiments) of the same compound?
Answer: The MIC was 0.78 µM.

Question: What about the MIC (A. baumannii 907233; A. baumannii 907233 isolated from patient, broth microdilution, 37 °C, 18 h, three independent experiments) of the same compound?
Answer: The MIC was 0.78 µM.

Question: And the MIC (A. baumannii #3 [4]; A. baumannii #3 isolated from patient, broth microdilution, 37 °C, three independent experiments)?
Answer: The MIC was 0.78 µM.

Question: What about the MIC (A. baumannii #2; A. baumannii #2 isolated from patient, broth microdilution, 37 °C, three independent experiments) of the same compound?
Answer: Its MIC is 0.39 µM.

Question: And the MIC (A. baumannii #4; A. baumannii #4 isolated from patient, broth microdilution, 37 °C, three independent experiments)?
Answer: The MIC was 0.39 µM.

Question: And the MIC (A. baumannii 719705 [5]; A. baumannii 719705 isolated from patient, broth microdilution, 37 °C, 18 h, three independent experiments)?
Answer: The MIC was 0.78 µM.
